# Reference: patent US20240158442A1, “MULTIFUNCTIONAL POLYPEPTIDE AND APPLICATION THEREOF IN FIELD OF MEDICINES” (Wuhan Innerse Pharmaceutical Inc., priority 2021, published 2024)
# Square brackets hold non-standard residues; d marks the D form. Ends that are not written are not given here. βAla = NCCC(=O)O
# Key:
# [1] = Dose-effect experiment, body weight of MCAO model animals; details: 3 mg/kg i.v.; D 2 = 1 day after surgery
# Method: Measurement time: the body weight was measured at least twice during the accommodation, and each batch of rats were weighed once on the day before the surgery and on the day of dissection to calculate the amount of drug administered and the anesthetic applied; the body weight was measured twice a week after the surgery.
# The effect of test substance on the weight of model animals: cerebral ischemia-reperfusion is an acute injury model, wherein the weight of experimental animals will drop dramatically after MCAO modeling. Thus, the weight of experimental animals is one of the most basic sensitive parameters to comprehensively reflect the health status of animals.
# [2] = test system: rats with cerebral ischemia (middle cerebral artery occlusion, MCAO); assay: MCAO rat model of cerebral ischemia, behavioral observation and scoring (Example 5); type: in vivo, SD rats; details: 3 mg/kg via tail vein; for behavioral score, rat No. 1: individual animal No. 1; for behavioral score, rat No. 2: individual animal No. 2; for behavioral score, rat No. 3: individual animal No. 3; for behavioral score, rat No. 4: individual animal No. 4; for behavioral score, rat No. 5: individual animal No. 5; for behavioral score, rat No. 6: individual animal No. 6; for behavioral score, mean value: scored 22-24 h after suturation, scale 0-5, 6 rats per group
# Method: (§1) In order to determine the application of the synthetic peptides provided by the present invention in neurological diseases, the present invention uses SD rats as experimental objects, and performs middle cerebral artery occlusion method (MCAO) to prepare rat model of cerebral ischemia. These rats were injected drugs intravenously 1-2 hours after ischemia, and a behavioral observation and scoring was conducted for each animal after 22-24 hours. After the behavioral observation, the experimental rats were euthanized and their brains were removed, cut to sections and stained with TTC for quantitative analysis, and the cerebral infarct volume % was calculated.
# (§2) The experimental SD rat was weighed and anesthetized with chloral hydrate. After anesthesia, the limbs of the rat were fixed, and the rat was placed in a supine position, connected to the small-animal monitor, and monitored for important physiological parameters such as body temperature, blood pressure and heart rate, etc. The rat's neck was shaved and disinfected with 75% alcohol cotton ball. A middle incision of about 2 cm length was then made on the neck of the experimental rat, and the submandibular gland of the rat was bluntly separated while avoiding damage to the gland. Then, the left common carotid artery (CCA) of the experimental rat was bluntly separated, and the internal carotid artery (ICA) and external carotid artery (ECA) were carefully separated upward along the CCA. Any damage to vagus nerves was avoided during the separation. The CCA and ICA were clamped respectively with two artery clamps, and the distal end of the ECA was cut off and a silicone suture emboli was inserted into the ECA “port” to the ICA artery clamp, then the artery clamp was quickly loosened and the tip of the suture emboli was put in through the artery clamp quickly before clamping the ICA again. This step was repeated and the suture emboli was put in further until the black mark of the suture emboli reached the bifurcation of the ECA and ICA, and the tip of the suture emboli blocked the middle cerebral artery and then the ECA “port” and the suture emboli was tied tightly using a thread in order to prevent the “escape” of suture emboli or bleeding after the rat waked up. The artery clamps on the CCA and ICA were then loosed and removed to restore the tissue to its original position, and an appropriate amount of penicillin was applied to prevent wound infection. A medical suture needle with thread was used to suture, and the wound was disinfected using povidone-iodine again after the suturation. The experimental rats were monitored with the small-animal monitor to evaluate if their physiological parameters were normal, and the rats were placed on a small-animal electric blanket to keep their body temperature until they waked up, and placed in animal cages.
# (§3) The drug to be tested was prepared as 3 mg/mL solution. The drug was dosed via tail vein 1-2 h after the suturation.
# (§4) During the drug administration, the rat was fastened with a fastening device, and the drug to be tested was injected into the tail vein of the rat at 3 mg/kg using 1 mL syringe, the drug was injected slowly to reduce the cardiopulmonary load of the experimental rat.
# (§5) The animals were divided into different test groups, with 6 rats for each group. Model group: After the suturation, an equal amount of normal saline was given via tail vein; Drug groups S1 (NA1), S4 (β-Ala-His-Lys-Ala-Pro) and S5 (Pro-Ala-Lys-β-Ala-His): administered via tail vein after the suturation;
# The behavioral observation and scoring were performed on each animal 22-24h after the suturation.
# [3] = test system: rat cerebral ischemic stroke (MCAO, reperfusion 120 min after ischemia); assay: Dose-effect experiment, MCAO ischemia-reperfusion model, rat neurological function score (NSS); type: in vivo, Sprague-Dawley (SD) rats; details: 3 mg/kg i.v., D 2 = 1 day after surgery, model control 8.62 ± 0.84
# Method: The establishment of rat model: the rats were placed in an anesthesia induction box filled with 3.0% isoflurane for anesthesia induction. Anesthesia-induced animals were transferred to the operating table, and anesthesia was maintained with 2.0%˜2.5% isoflurane at 200 mL/min using a small-animal gas anesthesia machine, and the eyelid reflex and pain response of the rats were observed. The surgery can be started only after the eyelid reflex response and the pain response on limbs and tail disappeared. […]
# • Measurement time: 24 hours before and after modeling; • Animals measured: all the surviving experimental animals planned to be measured; • Measurement method: a motor function test, sensory test, balance test, and reflex and abnormal behavior test were performed on animals, according to the rat neurological function score scale (NSS) for details.
# The main purpose of clinical treatment for cerebral infarction is to restore the patient's neurological function as much as possible and to improve the quality of life after stroke. In this experiment, the animals were evaluated with Bederson scoring 1 hour after ischemia to evaluate the ischemia in animals. One day after modeling, the neurobehavioral function of animals was evaluated with NSS scoring scale in order to evaluate the effect of test substance in improving the neurological function of animals.
# [4] = test system: rat cerebral ischemic stroke (MCAO, reperfusion 120 min after ischemia); assay: Dose-effect experiment, suture-embolized MCAO ischemia-reperfusion model, TTC staining, cerebral infarction size (Example 6); type: in vivo, Sprague-Dawley (SD) rats; details: for Infarct size (infarct tissue weight as percentage of whole brain weight): model control 24.84 ± 3.39
# Text: Preparation method: an amount of test substance was weighted and fully dissolved using water for injection to the required concentration, and was filtered with a 0.22 μm filter to sterilize.
# Animal strain: Sprague-Dawley (SD) rats; grade: SPF grade. Body weight: 200.01-240.03 g when the accommodation started, 213.79-278.79 g when grouping. Age: about 5-7 weeks old during the accommodation, and 6-8 weeks old when grouping. Source: SPF (Beijing) Biotechnology Co., Ltd., Beijing, China.
# A. Isolating and exposing blood vessels: the skin of the surgical area was shaved, and the rat was placed under a surgical microscope. The skin of the rat was cut along the midline with ophthalmic scissors, with a cut of about 2 cm length. Through the right neck of the rat, the muscle tissue of the right neck was bluntly isolated and opened with a microforcep to expose the right common carotid artery (CCA), and then isolated upward along the common carotid artery to further expose the external carotid artery (ECA) and internal carotid artery (ICA);
# B. The ECA was ligated and the ICA was temporarily clamped; the proximal end and distal end of CCA were threaded separately, the distal end was tied tightly and the proximal end was tied with a loose knot, and a small incision was made between the two threads;
# Inserting the suture emboli: A No. 4-0 suture emboli was inserted through the incision of CCA, pushed slowly and gently into the internal carotid artery, and stopped at the artery clamp of ICA, the pre-set thread was tied tightly (to avoid severe bleeding when pushing the suture emboli), then the artery clamp that blocked the blood flow of ICA was removed, and the suture emboli was immediately pushed into ICA until entering into the cranium. […]
# D. Fixing the suture emboli and suturing the incision: if one felt slight resistance when the suture emboli was inserted about 18 mm depth from the bifurcation of the common carotid artery, it means that the tip of the suture emboli has entered into the cerebral anterior artery (ACA), and the side wall of the suture emboli has blocked the opening of the middle cerebral artery; at the moment, the insertion was terminated and the time was recorded. […]
# [5] = test system: experimental cerebral ischemia-reperfusion in animals (cynomolgus monkeys); details: preclinical ischemic stroke model; cited from earlier work
# [6] = test system: rats with cerebral ischemia (middle cerebral artery occlusion, MCAO); assay: MCAO rat model of cerebral ischemia, TTC staining, cerebral infarct volume (Example 5); type: in vivo, SD rats; details: for infarct volume (TTC quantification), mean value: 3 mg/kg via tail vein 1-2 h after suturation, TTC after 22-24 h, 6 rats per group; for infarct volume (TTC quantification), rat No. 1: individual animal No. 1; for infarct volume (TTC quantification), rat No. 2: individual animal No. 2; for infarct volume (TTC quantification), rat No. 3: individual animal No. 3; for infarct volume (TTC quantification), rat No. 4: individual animal No. 4; for infarct volume (TTC quantification), rat No. 5: individual animal No. 5; for infarct volume (TTC quantification), rat No. 6: individual animal No. 6
# Method: as §1
# • Small-animal monitor: VT200 from Rongxianda Technology Co., Ltd., Shenzhen, China. • SD rats: 180-200 g, from China National Institutes for Food and Drug Identification. • Suture emboli: Maiyue Bio (M8507). • TTC staining solution: Yuanye Bio (R24053).
# as §2, §3, §4, §5
# After the behavioral observation, experimental rats were euthanized and their brains were removed. […]
# [7] = test system: patients with acute ischemic stroke (AIS) undergoing endovascular thrombectomy; details: intravenous injection 2.6 mg/kg; cited from earlier work
# [8] = 3 mg/kg i.v. once within 10 min after reperfusion, TTC 24 h after treatment
# [9] = listed as β-Ala-His-Lys-Ala-Pro
Substance,"behavioral score, rat No. 1 [2] [points]","behavioral score, rat No. 2 [2] [points]","behavioral score, rat No. 3 [2] [points]","behavioral score, rat No. 4 [2] [points]","behavioral score, rat No. 5 [2] [points]","behavioral score, rat No. 6 [2] [points]","behavioral score, mean value [2] [points]","infarct volume (TTC quantification), mean value [6]","infarct volume (TTC quantification), rat No. 1 ([6]; 3 mg/kg via tail vein)","infarct volume (TTC quantification), rat No. 2 ([6]; 3 mg/kg via tail vein)","infarct volume (TTC quantification), rat No. 3 ([6]; 3 mg/kg via tail vein)","infarct volume (TTC quantification), rat No. 4 ([6]; 3 mg/kg via tail vein)","infarct volume (TTC quantification), rat No. 5 ([6]; 3 mg/kg via tail vein)","infarct volume (TTC quantification), rat No. 6 ([6]; 3 mg/kg via tail vein)",other results
"YGRKKRRQRRRKLSSIESDV [Example S1, nerinetide]",2,2,2,2,1,3,2.0,0.157,0.187,0.218,0.153,0.145,0.107,0.134,"Weight D 2 [1]: 203.7 ± 10.94 g; behavioral score, mean value ([2]; listed as NA1): 2.0±0.6 points; NSS score D 2 ([3]; listed as Positive drug): 8.00 ± 0.76; NSS score D 2 ([3]; listed as positive control): 8.00±0.76; Infarct weight [4, 8]: 0.24 ± 0.02 g; Infarct size (infarct tissue weight as percentage of whole brain weight) [4, 8]: 16.74±3.14%; Infarct size (infarct tissue weight as percentage of whole brain weight) ([4]; 3 mg/kg i.v. once within 10 min after reperfusion, TTC 24 h after treatment, listed as Positive drug): 16.74 ± 3.14 %; Inhibition rate of cerebral infarction ([4]; 3 mg/kg i.v., calculated from infarct size versus model control group): 33%; functional prognosis [5]: improve the functional prognosis; infarct size of experimental cerebral ischemia-reperfusion [5]: reduce the infarct size; infarct volume (TTC quantification), mean value ([6]; listed as NA1): 0.157±0.040; patient's prognosis [7]: improved patient's prognosis"
β-Ala-His-Lys-Ala-Pro ([βAla]HKAP) [Example S4],3,2,3,2,1,1,2.0,0.155,0.233,0.157,0.137,0.171,0.118,0.116,"behavioral score, statistical comparison with S1 ([2]; compared with S1 (NA1) 3 mg/kg): not statistically different from S1; behavioral score, mean value [2, 9]: 2.0±0.9 points; infarct volume (TTC quantification), mean value [6, 9]: 0.155±0.044; infarct volume, statistical comparison with S1 ([6]; 3 mg/kg via tail vein, compared with S1 (NA1) 3 mg/kg): not statistically different from S1"
